“And” between values parts separate entries of the source, which are not always exact repeats. Identical values can stand only once. “Also recorded” adds a separate entry of the source. Like-named read-outs stand apart in the source and are kept apart here.
What was measured:
hPTP1B1–285 = target: T1, hPTP1B1–285 (Homo sapiens, UniProt P18031); assay: PTP1B activity assay, short form hPTP1B1–285 (p‐NPP); format: biochemical; details: ± S.D; p‐NPP substrate, 15 min at 37 °C
T1 construct: hPTP1B1–285 (the short form with an N‐terminal catalytic domain)
T1 sequence (P18031 1-285): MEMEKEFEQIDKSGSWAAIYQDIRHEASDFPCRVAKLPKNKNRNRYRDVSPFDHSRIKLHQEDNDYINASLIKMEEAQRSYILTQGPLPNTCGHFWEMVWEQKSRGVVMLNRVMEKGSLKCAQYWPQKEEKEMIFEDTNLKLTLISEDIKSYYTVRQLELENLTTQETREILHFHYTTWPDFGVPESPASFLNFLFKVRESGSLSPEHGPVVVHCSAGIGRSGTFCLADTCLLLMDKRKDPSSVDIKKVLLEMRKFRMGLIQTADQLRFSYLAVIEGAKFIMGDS
Protocol: (§1) The inhibitory activity of PTP1B was assessed using two enzyme variants: hPTP1B1–285 (the short form with an N‐terminal catalytic domain) and hPTP1B1–400 (the long form with an intrinsically disordered C‐terminal regulatory domain). […] According to Coronel‐Tovar et al., the disordered region of the C‐terminal domain plays a crucial role in modulating PTP1B enzymatic activity.^[ [30] ^] […] Different concentrations of the compounds were evaluated to determine their IC50 values (Table 1 ).
To do so, these terpenoids were tested against hPTP1B1–285.
(§2) Recombinant human protein tyrosine phosphatase 1B, consisting of 400 and 285 amino acid residues, was used.^[ [35] ^] […] Aliquots of 0–10 µL of the test compounds (triplicate) were taken and incubated for 15 min at 37 °C with 85 µL of Tris buffer solution (50 mM, pH 6.8) containing PTP1B enzyme and 5 µL of p‐nitrophenyl phosphate substrate (p‐NPP, 10 mM). Absorbance was then measured at a wavelength of 405 nm. The inhibitory activity was determined according to Equation (1). (1) % PTP1B=(A405b/A405c)×100 where % PTP1B: Is the percentage of inhibition. A 405c: Is the corrected absorbance of the blank (A 405initial–A 405final). A 405b: Is the corrected absorbance of the compounds (A 405control–A 405compound).

HepG2 cells = assay: Cell viability with crystal violet; format: cell-based; details: 1 and 25 µM, 24 h
Protocol: (§3) Subsequently, we evaluated the same compounds in a HepG2 insulin‐resistant model.
A 96‐well plate was seeded with 3,000 cells per well and incubated for 24 h. Afterward, the cells were treated with test compounds at various concentrations for 24 h. After incubation, the media was removed, and 100 µL of 1% glutaraldehyde was added for 15 min. Afterward, the liquid was removed, and 50 µL of 0.5% crystal violet (dissolved in 25% methanol) was added for 30 min. The crystal violet staining solution was removed, and the plate was thoroughly washed with tap water. The precipitate was dissolved in a 10% acetic acid solution and mixed for 15 min. The absorbance was then measured at 590 nm using a plate reader (xMark Microplate Spectrophotometer—Bio‐Rad).
Figure S59. Cell viability assessment by crystal violet staining. HepG2 cell viability was evaluated
after treatment with the respective compounds at concentrations of 1 and 25 µM for 24 hours. Bar
graphs represent mean ± SEM.

hPTP1B1–400 [1] = target: T2, hPTP1B1–400 (Homo sapiens, UniProt P18031); assay: PTP1B activity assay, long form hPTP1B1–400 (p‐NPP); format: biochemical; parameters: hPTP1B1–400 (the long form with an intrinsically disordered C‐terminal regulatory domain); details: for IC50: ± S.D, p‐NPP substrate, 15 min at 37 °C, triplicate
T2 sequence (P18031 1-400): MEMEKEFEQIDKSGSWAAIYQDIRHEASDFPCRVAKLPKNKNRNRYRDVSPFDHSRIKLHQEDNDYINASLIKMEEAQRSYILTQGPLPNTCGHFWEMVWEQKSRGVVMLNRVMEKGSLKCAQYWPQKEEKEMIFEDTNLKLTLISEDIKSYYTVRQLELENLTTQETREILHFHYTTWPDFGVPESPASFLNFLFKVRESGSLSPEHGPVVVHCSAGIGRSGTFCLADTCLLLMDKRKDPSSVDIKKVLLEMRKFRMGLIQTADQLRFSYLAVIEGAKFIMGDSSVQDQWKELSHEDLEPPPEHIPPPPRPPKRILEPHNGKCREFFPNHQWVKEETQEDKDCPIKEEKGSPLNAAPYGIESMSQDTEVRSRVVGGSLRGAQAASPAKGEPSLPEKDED
Protocol: as §1, §2

hPTP1B1–400 [2] = target: T2, hPTP1B1–400; assay: Kinetic studies of PTP1B (hPTP1B1–400);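 further: enzyme kinetics run across a range of substrate and inhibitor levels, control lacking inhibitor, triplicate runs, parameters derived by fitting Michaelis–Menten style equations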
Protocol: Kinetic analyses were performed at various substrate and inhibitor concentrations.
The negative control was prepared with the enzyme and substrate in the absence of the inhibitor. Experiments were conducted in triplicate.^[ [30] ^] […] The kinetic parameters of enzyme inhibition, K m and V max, were determined by fitting the data to the Michaelis‐Menten model, Equation (3) (OriginPro 2018 (64‐bit) SR1). (3) y=VmaxX/Km+X´ where V max: is the maximum velocity, X: is the inhibitor concentration, K m: Michaelis constant.
(4) y=Vmax(X)/(Km/1+I/Ki)+X where V max: maximum velocity, X: substrate concentration, I: inhibitor concentration, K m: Michaelis constant, K i : inhibition constant.

TCPTP = target: T3, TCPTP (Homo sapiens, UniProt P17706); assay: T‐cell protein tyrosine phosphatase (TCPTP) activity assay (p‐NPP); format: biochemical; details: for TCPTP inhibition (in words): up to 100 μM
T3 sequence (P17706 1-415): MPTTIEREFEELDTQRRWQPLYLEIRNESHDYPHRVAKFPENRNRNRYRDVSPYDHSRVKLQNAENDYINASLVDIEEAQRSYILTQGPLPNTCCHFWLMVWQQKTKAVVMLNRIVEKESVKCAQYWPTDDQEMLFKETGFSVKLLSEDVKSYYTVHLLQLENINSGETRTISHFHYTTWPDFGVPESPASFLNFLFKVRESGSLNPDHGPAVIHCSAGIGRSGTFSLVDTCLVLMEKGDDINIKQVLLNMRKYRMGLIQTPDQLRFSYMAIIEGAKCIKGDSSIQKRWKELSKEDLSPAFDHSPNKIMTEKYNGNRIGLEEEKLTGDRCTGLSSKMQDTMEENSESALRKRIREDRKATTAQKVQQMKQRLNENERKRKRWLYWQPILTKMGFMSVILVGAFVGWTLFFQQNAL
Protocol: The effectiveness and safety of protein tyrosine phosphatase (PTP) inhibitors depend on their specificity. PTP1B and TCPTP serve different functions: PTP1B is involved in metabolism and cancer, while TCPTP regulates immune function. Inhibiting TCPTP could impact the immune response, whereas inhibiting PTP1B may benefit metabolic diseases without these side effects.^[ [20] ^, [34] ^, [35] ^] […] These compounds were assessed up to 100 μM (Table 1).
TCPTP enzyme reported by Mendoza et al. was used for this assay. […] Aliquots of 0–10 µL (triplicate) of the newly synthesized compounds, positive control, and solvent were taken. These were incubated with 85 µL of enzyme solution (Tris, 50 mM, pH 6.8, TCPTP) and 5 µL of substrate (p‐NPP, 10 mM) for 15 min at 37 °C.

[3] = system: streptozotocin‐induced diabetic rats; parameters: method as in PMID 37628991; details: cited from earlier work
[4] = parameters: method as in PMID 37628991; details: cited from earlier work
PTP1B = details: cited from earlier work
[5] = system: insulin‐resistant HepG2 cells; assay: Insulin‐resistant HepG2 model, western blotting of PTP1B and pAKT; format: cell-based; details: 24 h, western blot
Protocol: as §3
Bar graphs represent the mean ± SEM of normalized values. The control levels were set at 1. T‐test significance *p < 0.05, when compared with control (DMSO). Statistical analyses were carried out using GraphPad Prism 8.0.
For the resistant insulin model using HepG2 cells, the following reagents were acquired from Sigma–Aldrich (Toluca, MEX, Mexico, and St. Louis, MO, USA): Insulin (I2643), Dulbecco's modified eagle's medium (DMEM) low glucose media (D5523), Trypsin‐EDTA solution (T4174), antibiotic‐antimycotic solution(A5955), dimethyl sulfoxide (DMSO‐D8418), sodium deoxycholate (D6750), triethylammonium bicarbonate buffer 1 M (TEAB‐T7408), glutaraldehyde 25% (G6275), acetic acid (695092), and crystal violet (C0775). The bicinchoninic acid protein quantitation kit (23225) and the Halt Cocktail with protease and phosphatase inhibitors (1861281) were acquired from ThermoFisherScientific. Fetal bovine serum (26140–079) was from Gibco. The chemiluminescent solution (170–5061) was acquired from Biorad. Rabbit anti‐PTP1B (5311S) and mouse anti‐β actin (3700S) primary antibodies were obtained from Cell Signaling, and secondary antibodies coupled with horseradish peroxidase were from Jackson laboratories (rabbit‐111−035, mouse‐115–035).
Treated cells with compounds were washed twice with 1 mL of PBS, and protein was extracted using 500 µL of a buffer solution containing 10% sodium deoxycholate in 10% TEAB, supplemented with a protease and phosphatase inhibitor cocktail. The extracts were heated to 80 °C for 5 min and disaggregated through passages with an insulin syringe. The cell extracts were centrifuged at 15,000 rpm for 15 min at 4 °C, and the supernatant was collected. Protein quantification was performed using the bicinchoninic acid assay method, and aliquots were prepared for western blotting. SDS/PAGE was conducted, and proteins were transferred onto a nitrocellulose membrane. The membrane was then blocked with 10% skimmed milk in TBST for 1 h and incubated overnight with primary antibodies (1:400 dilution). Secondary antibodies coupled to horseradish peroxidase were diluted 1:2000, and membranes were incubated for 1 h. The blots were documented using the ChemiDoc MP (Bio‐Rad), and densitometric analysis was performed using ImageJ (U.S. National Institutes of Health). Statistical analyses were carried out using GraphPad Prism 8.0.

[6] = ± S.D, hPTP1B1–400 with inhibitor
[7] = ± S.D, assessed up to 100 μM, read-out: TCPTP IC50
[8] = streptozotocin‐induced diabetic rats

IC50 (hPTP1B1–285)	IC50 (hPTP1B1–400 [1])	IC50 (TCPTP; [7])	TCPTP inhibition (in words) (TCPTP)	SMILES	HepG2 cell viability (HepG2 cells)	antidiabetic activity [3]	doses at which safe [4]	times better potency against PTP1B than 18β‐GA (PTP1B)	type of PTP1B inhibition (PTP1B)	AKT phosphorylation (pAKT) levels [5]	PTP1B levels [5]	further results
31600 ± 880 nM	1570 ± 40 nM	> 100000 nM		Cc1ccc(-n2ncc3c2C(C)(C)C2CCC4(C)C(C(=O)C=C5C6CC(C)(C(=O)O)CCC6(C)CCC54C)C2(C)C3)cc1 (stereo not drawn) [Compound 5c]	No significant differences; also recorded: did not compromise HepG2 cell viability							Ki (hPTP1B1–400 [2]; K i, ± S.D, hPTP1B1–400, p‐NPP 0.1 to 0.5 mM): 220 nM and 224 nM; Inhibition type (hPTP1B1–400 [2]; hPTP1B1–400): uncompetitive inhibition; K m (hPTP1B1–400 [2]; [6]): 1420 ± 320 µM; V max (hPTP1B1–400 [2]; [6]): 1.54 ± 0.28 mM/min
25100 ± 850 nM	1150 ± 40 nM	> 100000 nM	did not inhibit TCPTP	Cc1ccc(-n2ncc3c2C(C)(C)C2CCC4(C)C(C(=O)C=C5C6CC(C)(C(=O)O)CCC6(C)CCC54C)C2(C)C3)cc1 (stereo not drawn) [FC‐122]	did not compromise HepG2 cell viability	showed antidiabetic activity	below 2000 mg kg^−1	14 times	uncompetitive inhibitor			HepG2 cell viability (HepG2 cells; listed as FC-122): No significant differences; fold more potent than the alpha epimer (hPTP1B1–400 [1]; beta epimer vs alpha epimer (FC‐114 vs 3c, FC‐122 vs 5c), hPTP1B1–400 IC50): 1.3 fold
	480 ± 6 nM	> 100000 nM	did not inhibit TCPTP	CC1(C(=O)O)CCC2(C)CCC3(C)C(=CC(=O)C4C5(C)Cc6c([nH]c7ccc(C(F)(F)F)cc67)C(C)(C)C5CCC43C)C2C1 (stereo not drawn) [FC‐114]	did not compromise HepG2 cell viability	showed antidiabetic activity	below 2000 mg kg^−1	25 times	noncompetitive inhibitor			insulin levels ([3]; streptozotocin‐induced diabetic rats, compared with glibenclamide): increased insulin levels more than glibenclamide; HDL cholesterol [3, 8]: without affecting HDL cholesterol; total cholesterol levels [3, 8]: significantly reduced total cholesterol levels; HepG2 cell viability (HepG2 cells; listed as FC-114): No significant differences
				C[C@H]1[C@H](C)CC[C@]2(C(=O)O)CC[C@]3(C)C(=CC[C@@H]4[C@@]5(C)CC[C@H](O)C(C)(C)[C@@H]5CC[C@]43C)[C@H]12 [UA, ursolic acid]						did not demonstrate a notable change	neither metformin, ursolic acid, nor GA derivatives significantly reduced PTP1B levels	IC50 (TCPTP): > 100000 nM
				CN(C)C(=N)N=C(N)N [metformin]						significant increase	neither metformin, ursolic acid, nor GA derivatives significantly reduced PTP1B levels	

— paper PMC12640663 (Chemmedchem, 2025)
